Data from patent publication US7728105B2, “Peptides impairing PBX dependent gene regulation” (St. George's Hospital Medical School, priority 2002, dated 2010).
No end group written: not given here.

Assays:
AC133+ cells = assay: Short-term ex-vivo AC133+ cell expansion culture with HXP peptide, trypan blue cell count; format: cell-based, human; conditions: HXP peptide withdrawn at 7 days, Hox B4 protein 20 μg/ml added
Experimental: Umbilical Cord Blood (UCB) specimens were collected from full-term deliveries scheduled for elective caesarian sections following hospital ethical regulations.
Samples were diluted 1 in 4 in PBS supplemented with a citrate-based anti-coagulant (0.6% ACD-A, Baxter, France) and Bovine Serum Albumin (0.5% fraction V, Sigma Aldrich, UK) at pH=7.4 and referenced as “ACD-A buffer”. Diluted UCB was carefully overlaid in a 1:4 ratio onto a research grade Ficoll-Paque solution (d:1.077 g/cm^3, Pharmacia Biotech, Sweden) prior to Centrifugation (400 g, 30 minutes, 22° C.). The mononuclear cells (MNC) layer was extracted, washed twice in ACD-A Buffer, pelleted (400 g, 10 minutes) before resuspending in ACD-A buffer and cell aliquots taken for cell viability/enumeration using trypan blue (Sigma Aldrich).
AC133+ cells were obtained from MNC after immunomagnetic separation using the AC133 mini-MACS selection kit (Miltenyi Biotec, Germany): labelling volume 500 μl/10^8 cells in ACD-A buffer containing Fc Receptor-blocking reagent (100 μl, 5 min incubation, 4° C.) before adding colloidal super-paramagnetic MACS MicroBeads conjugated to monoclonal mouse anti-human AC133/1 antibody (100 μl IgG1 isotype, 25 min incubation, 4° C.). Cells were then washed (5 ml ACD-A buffer, 400 g, 10 min, 4° C.) before resuspended cells in 500 μl ACD-A buffer were applied to a chilled MACS positive selection column (MS+/RS+) on a magnet. The column was rinsed with cool ACD-A buffer (4×500 μl) and the AC133− cell population retained at 4° C. After magnet removal AC133+ cells were eluted with 1 ml of cold ACD-A buffer. The AC133+ cell fraction was reapplied to a new column, prior to cell enumeration and viability assays.
AC133+ cells were seeded in duplicate in liquid culture system at 2-4×10^4 cells/ml. […] Cultured cells were then counted at various time points using trypan blue exclusion method described above.

malignant cell lines = assay: Proliferation of malignant cell lines over seven days in culture; format: cell-based, human; parameters: effect of increased dose on proliferation of malignant cell lines: dose or concentration left out as unconfirmed; conditions: ten fold increase in dose
Experimental: A number of cell lines representing different malignancies were grown in culture for seven days, and HXP peptide or the control peptide CXP were added to a final concentration of 20 μg/ml on day 3. The bars represent the fold increase of each cell line over the seven days; the empty, dashed bars indicate the CXP peptide treated cells, whilst the solid bars indicate the addition of HXP peptide. Error bars represent the standard error the mean, and n is the number of experiments performed. The cell lines used were: AML—KG1a; Bladder—HT; Breast—SKBR3; Cervical—HeLa; Colon—Colo41; Gastric—MKN-45; Large cell lung cancer—MES; Melanoma—DX3; Ovarian—1847; Pancreatic—Panc-Tu1; Prostate—LNCAP; Renal—HT1376; Small cell lung cancer—NCI-h510A. The change in the expression of the HOX genes expressed by each cell line was assessed by RT-PCR on RNA extracted from the cells at the end of seven days. ‘HOX gene inactivated’ means that the level of expression of each of the listed HOX genes was at least five fold lower in the HXP peptide treated cells compared to the control. *Analysis not yet complete.
A number of cell lines representing different malignancies were grown in culture for seven days, and HXP peptide or the control peptide CXP were added to a final concentration of 200 μg/ml on day 3. The bars represent the fold increase of each cell line over the seven days; the empty, dashed bars indicate the CXP peptide treated cells, whilst the solid bars indicate the addition of HXP peptide. Error bars represent the standard error the mean, and n is the number of experiments performed. The cell lines used were: Bladder—HT; Cervical—HeLa; Melenoma—DX3; Pancreatic—Panc-Tu1.
Solid tumour cell lines (Cancer Research UK) were seeded at 4×10^4 cells/ml, in a liquid culture system made of appropriate medium (see table, Sigma-Aldrich, UK) supplemented with 10% FCS (Sigma Aldrich) and penstrep (1% Sigma). All cell lines were grown with HXP peptide (as in Example 3, 20 μg/ml or 200 μg/ml) or control peptide CXP (20 μg/ml or 200 μg/ml).
KG1a, KG1, HL60 and U937 cell lines (EACC, UK) were seeded at 5×10^4 cells/ml, in a liquid culture system made of RPMI-1640 medium (Life Technologies, UK) supplemented with 10% FCS (Sigma Aldrich) and gentamicin (50 μg/ml Life Technologies) in triplicates. All cell lines were grown with HXP peptide peptide (20 μg/ml) or control peptide (20 μg/ml).
Cell lines were cultured for various time points at 37° C., 5% CO2 in humidified atmosphere and enumerated at various time points.

[1] = tested on: PBX1, 2 and 3 association with HOX proteins; assay: Cross-linking and Western blot of PBX proteins in KG1a cells (Example 2); format: cell-based, human; conditions: 24 hours, 1 μM peptide, EDC cross-linking
Experimental: HXP and control peptides were as described in Example 1. KG1a cells were grown as described in Example 1. KG1a cells were cultured for 24 hours without treatment, or in the presence of 1 μM HXP peptide or control peptide. The cells were harvested and lysed. One aliquot of the cells was subject to cross-linking. Frozen cells were lysed using standard techniques and […] of lysate was incubated for 30 minutes at room temperature in 4 mM 1-ethyl-3-[3-(dimethyl-amino)propyl]carbodimide (EDC), 4 mM sulpho-NHS, 20 mM HEPES (pH 7.5), 5 mM MgCl2, and 0.03% (w/v) […] to cross-link non-covalently associated proteins. The reaction was stopped by the addition of ammonium acetate to a final concentration of 50 mM. The other aliquot was frozen without cross-linking.
Proteins were extracted from the cells of both aliquots by standard techniques and separated by gel electrophoresis. The gels were probed by Western blot with an antibody raised against PBX1, 2 and 3 (sc-888, Santa Cruz Inc. USA) or an anti-beta actin antibody (sc-1615, Santa Cruz Inc. USA).

PBX/HOX dimers = assay: Western blotting of PBX and PBX/HOX dimers in CD133+ cells (Example 3); format: cell-based, human; conditions: 20 μg/ml, EDC cross-linking
Experimental: CD133+ cells (another name for AC133+ cells) were seeded in duplicate at 4×10^4 cells/ml in IMDM (Life Technologies), 10% FCS (Sigma Aldrich) and gentamycin (50 μg/ml Life Technologies) and Thrombopoietin (TPO) 10 ng/ml, Flt3-Ligand (FL) 50 ng/ml & c-KitL (K) 20 ng/ml), all obtained from R and D systems Ltd., UK. (Forraz et al., 2002). The HXP peptide (N-term: WYPWMKKHHRQIKIWFQNRRMKWKK: C-term; Eurogentec, Belgium) and control CXP peptide (N-term: WCCLADRHGRQIKIWFQNRRMKWKK: C-term; Eurogentec, Belgium) were added to culture medium at a concentration of 20 μg/ml. To withdraw peptides from culture, cells were washed twice in IMDM or RPMI and reseeded at prewash cell densities. Primary cells were cultured for 3 weeks at 37° C., 5% CO2 in humidified atmosphere and enumerated by a […] exclusion method with a heamocytometer.
Protein was extracted from HXP-treated or CXP-treated CD133+ cells (20 μg/ml). C-20 antibody that recognises all three human PBX gene proteins (sc-888, Santa Cruz Biotechnology Inc., USA; Monica et al., 1991). Protein cross linking was performed with 2 mM 1-ethyl-3-[3-(dimethylamino)propyl]carbodiimide (EDC) (Pierce Biotechnology, USA), in cell lysates diluted 1:10 in conjugation buffer (0.1M 2-[N-morpholino]ethane sulphonic acid, pH 5). […]

[2] = Stability in human serum at 37° C., denaturing PAGE and silver stain
Experimental: 30 μg of HXP(10) or HXP peptide were incubated in 50 μl of human serum at 37° C. for the times shown. Samples were run on a denaturing PAGE and silver stained.

[3] = comparison with other peptide based pharmaceuticals; cited from earlier work

HOX B4: recombinant full length Xenopus laevis sequence
AC133+ cell proliferation after HXP peptide withdrawal and co-stimulation with HOX B4 (AC133+ cells): reverted to near control levels

WAPWEDDHHRQIKIWFQNRRMKWKK (Control Peptide) [reference compound]
effect of increased dose on proliferation of malignant cell lines (malignant cell lines): no significant affect on proliferation
association of PBX proteins with other proteins (HOX proteins) [1]: associated with-other proteins

WCCLADRHGRQIKIWFQNRRMKWKK (WCCLADRHGRQIKIWFQNRRMKWKK) [CXP, reference compound]
binding of PBX to other proteins / formation of PBX/HOX dimers (PBX/HOX dimers): not

WYPWMKKHHR [HXP4(10), WYPWMKKHHR]
half-life [2]: ~4 h

low molecular weight heparin
serum half life [3]: thirty
